# In article PMC8894198, “Biosynthetic Microcin J25 Exerts Strong Antibacterial, Anti-Inflammatory Activities, Low Cytotoxicity Without Increasing Drug-Resistance to Bacteria Target” (Frontiers in Immunology, 2022):
# Where a SMILES comes first, the peptide text is derived from it. Bridges are numbered along the chain shown (N, C = ends).
# What was measured:
# plasmid DNA (pGEM-bGAL) = conditions: 400 ng plasmid DNA, 1 h room temperature, 1% agarose gel
# Method: Based on the previously worked out method ([27]), briefly, gel retardation experiments were carried out, in which 400 ng of plasmid DNA (pGEM-bGAL; Promega) was increasingly bound to […] of binding buffer in MccJ25 binding and incubated for 1 h at room temperature. Then, […] of local loading buffer in each sample was […], and a 12 μL aliquot was bound to a 1% agarose gel. Finally, 0.5× Tris-borate-EDTA buffer was used for electrophoresis.
# E. coli K88 = tested on: E. coli K88
# Method: The resistance of MccJ25 to pepsin, trypsin and chymotrypsin was evaluated based on previous studies ([26]), with minor modifications. E. coli K88 cells were prepared (approximately 1 × 10^7 CFU/mL), and 1 mL of the bacterial suspension and MccJ25 were transferred into 9 mL of medium. For the control, MccJ25 was not added. LB agar inoculated with E. coli K88 cells (~10^5 viable cells/mL) was poured onto a plate containing an Oxford cup to form individual wells. Then, 2 and 4 h MccJ25 (1 × MIC) previously subjected to different treatments were added to the wells. The agar overlay was incubated overnight at 37°C, and the diameter of the growth inhibition zone was measured.
# The simulated gastric fluid (SGF) and simulated intestinal fluid (SIF) were mainly based on the relevant contents of the Chinese Pharmacopoeia as described previously ([26]). SGF was configurated with 10 mg/mL pepsin, 0.03 M NaCl was used to blend the pH to 1.5, while SIF was configured with 10 mg/mL trypsin, 0.05 M KH2PO4 was used to blended pH as 7. SGF and SIF were then measured separately, and the antimicrobial activity of MccJ25 in serum was determined. E. coli K88 cells were grown in MHB (Difco Laboratories, Detroit, MI, USA). In short, 1 mL of the bacterial suspension and MccJ25 were transferred into 9 mL of medium. The control group was as follows: no MccJ25 was added to it. E. coli K88 cells with a live cell count maintained at approximately 10^5 cells per milliliter were inoculated on LB agar, which was then poured into plates equipped with Oxford cups, thus forming wells. Then, MccJ25 (1 × MIC) previously treated with SGF, SIF and serum for 2, 4, and 6 h was added to these wells. One of the agar substances covering the wells needs to be incubated overnight at 37°C, and finally, the size of its growth inhibition area, i.e., the diameter, needs to be determined.
# [1] = tested on: cocktail of MDR E. coli strains (521ZQE, AZ1, WWE921A-2) in C57BL/6 J mice; test: Cocktail of MDR E. coli strains challenge in mice, MccJ25 pretreatment; format: in vivo
# Text: 4-week-old C57BL/6 J female mice [initial body weight (BW) 15.23 ± 0.09] were purchased from Charles River Laboratories (Beijing, China) and raised under standard conditions. The producer was described in “Mice Model” section. […] Mice were maintained in a 3-d acclimatization period of time. Afterwards, 36 mice were randomly separated into three experimental groups based on BW: Uninfected group, control; Infected group; MccJ25+infected group, 12 mice per group in four cages, three mice/cage, total of 12 cages. Cocktail of MDR E. coli strains infection producers were performed as our previous described previously ([30]), experimental roadmap was shown in Figure 10A . A single of colony of MDR E. coli strains 521ZQE, AZ1, and WWE921A-2 were incubated in LB medium and grew to stationary stage (OD600 > 3), respectively. All mice were pretreated 0.2 ml PBS (control and infected group) or 0.2 ml PBS containing with 9.1 mg/kg/BW MccJ25 (MccJ25+infected group) for 3 d (once/day) prior to infection. Infected mice and MccJ25+infected mice received 0.2 ml sterile PBS containing 5 × 10^8 cocktail of MDR E. coli strains by oral gavage. The control group still received 0.2 ml of sterile PBS by gavage for 2 d. The concentration of biosynthetic MccJ25 was selected based on our previous study ([24]). After 3 d, mice were euthanized friendly, intestinal tissues, organs and serum were obtained. Fresh fecal, tissues, liver, and spleen were immediately placed on ice (1-2 h) and transported to the laboratory to count the specific bacteria in the laboratory. Serum was kept in -20°C and part of jejunum, colon, and spleen were stored in the -80°C for cytokines analysis.
# In the LPS-challenged mice experiment, lifespan of mice was monitored for 72 h. In the cocktail of MDR E. coli strains infection experiment, BW change, rectal temperature, diarrhea scores and fecal image, or survival rate were measured. For the diarrhea score evaluation producer was referred to previous study ([24]).
# The 0.1 g fresh jejunum, ileum, proximal colon, feces, liver, and spleen were collected and kept in sterile tubes containing 0.9 ml sterile physiological saline solution. Then, cryogenic lapping instrument (Shanghai Jingxin Industrial Development Co., Ltd., China) was applied to prepare the homogenate. 0.1 mL indicated samples prepared by ten-fold serial dilutions method were plated on indicated antibiotics MacConkey (OXOID, Hampshire, UK) and ChromAgar™ (OXOID, Hampshire, UK) plates. These plates were cultured overnight at 37°C to count colonies. Colony numbers were expressed as log 10 CFU/g of samples. All counts were performed in triplicate. Colonies were observed on the MacConkey agar and ChromAgar plates in the absence of indicated antibiotics, we considered that they were enterobacteria-like bacterium belonging to the class of family Enterobacteriaceae.
# Quantification of total bacteria, E. coli, Lactobacillus, and Bifidobacterium was done using PCR. In brief, total microbial DNA from cecal digesta was obtained. The total bacteria, Lactobacillus, Bifidobacterium, E. coli primers were synthesized in Invitrogen (Shanghai, China), which are listed in Table S1 . Standard curves of indicated bacteria were generated based on the construction of standard plasmids containing the 16S rRNA genes. The copy numbers of total bacteria, Lactobacillus, Bifidobacterium, and E. coli were calculated referring to standard curves as described previously ([30]).
# The concentrations of tumor necrosis factor-α (TNF-α), interleukin-6 (IL-6), IL-4, interferon (IFN)-γ, and nitric oxide (NO) in serum were measured. In addition, TNF-α and NO levels were also measured in the supernatant of RAW264.7 cells. ELISA was performed using a commercial ELISA kit (eBioscience, San Diego, USA). LPS levels in plasma were analyzed using the QCL-1000 kit (Xiamen, China) based on the manufacturer’s standards. […]
# [2] = 9.1 mg/kg/BW oral gavage for 3 d before infection
# [3] = ELISA, vs infected group, n = 6
# [4] = jejunum, colon and spleen, qPCR, vs infected mice
smiles,measurement,setting,value
"CC[C@H](C)[C@H](NC(=O)CNC(=O)[C@@H](NC(=O)[C@H](Cc1ccccc1)NC(=O)[C@H](Cc1ccc(O)cc1)NC(=O)[C@@H]1CCC(=O)NCC(=O)NCC(=O)N[C@@H](C)C(=O)NCC(=O)N[C@@H](Cc2c[nH]cn2)C(=O)N[C@@H](C(C)C)C(=O)N2CCC[C@H]2C(=O)N1)C(C)C)C(=O)NCC(=O)N[C@H](C(=O)N1CCC[C@H]1C(=O)N[C@H](C(=O)N[C@@H](CO)C(=O)N[C@@H](Cc1ccccc1)C(=O)N[C@@H](Cc1ccc(O)cc1)C(=O)NCC(=O)O)[C@@H](C)CC)[C@@H](C)O [MccJ25, microcin J25] (GGAGHVPEYFVGIGTPISFYG-OH; lactam N-8 (inferred); C-terminus assumed)",weight ratio (MccJ25:DNA) at which DNA migration was slightly inhibited,plasmid DNA (pGEM-bGAL),above 2.0
same,growth inhibition zone after heat treatment,"E. coli K88; MccJ25 1 × MIC pre-treated at 121°C for 20 minutes, Oxford cup, LB agar, overnight 37°C, n = 6",greater than 22 mm
same,growth inhibition zone after pH treatment,"E. coli K88; MccJ25 1 × MIC pre-treated at pH 2.0 to 9.0 for 2 h, Oxford cup, LB agar, overnight 37°C, n = 6",greater than 22 mm
same,"antimicrobial activity after SIF, SGF or serum treatment","E. coli K88; MccJ25 1 × MIC pre-treated with SGF, SIF and serum for 2, 4 and 6 h, inhibition zone",essentially the same as that of MccJ25 subjected to a single treatment
same,antimicrobial activity after protease challenge,"E. coli K88; MccJ25 1 × MIC pre-treated with pepsin, trypsin or chymotrypsin for 2 and 4 h, inhibition zone",retained
same,body weight,[1]; [2],increasing BW
same,diarrhea incidence,[1]; [2],decreasing diarrhea incidence
same,rectal temperature,[1]; [2],increasing
same,lifespan / survival,"[1]; 9.1 mg/kg/BW oral gavage once/day for 3 d before infection, n = 12",prolonging the lifespan
same,serum IL-4,[1]; [3],higher IL-4
same,"serum proinflammatory cytokines (TNF-α, IFN-γ, IL-6)",[1]; [3],lower proinflammatory cytokines
same,MDR E. coli colonization in liver and spleen,"[1]; d 3 after infection, n = 6",effectively reduced the degree of clinically source MDR E. coli colonization and expansion
same,IL-10 mRNA,[1]; [4],high anti-inflammatory cytokine IL-10
same,"mRNA of proinflammatory indicators (TNF-α, IL-6, IFN-γ, IL-1β, TLR4, NF-κB)",[1]; [4],lower proinflammatory indicators
same,"MDR E. coli in the intestines (jejunum, ileum, colon)","[1]; plate counts, d 3 after infection",significantly reduced the number and colonization
same,copy number of E. coli in cecal contents,[1]; real-time qPCR,sharply decreased the copy number
same,"copy numbers of Lactobacillus, Bifidobacterium in cecal contents",[1]; real-time qPCR,significantly increased the copy numbers
same,total bacteria copy numbers in cecal contents,[1]; real-time qPCR,no significant difference
same,bacterial load in the feces,"[1]; vs infected group, n = 6",markedly decreased the bacterial load
